Measured values published in US20200064357A1, “METHODS FOR DETERMINING AND MONITORING GASTROINTESTINAL INFLAMMATION” (Protagonist Therapeutics, Inc., priority 2016, published 2020).
Entries after “also recorded” stand apart in the source; their conditions may differ.

Assays:
Sprague-Dawley rats [1] = test: Distal colon markers in TNBS-induced rat colitis: MPO, IL-17A, IL-22 by ELISA, pStat3 by IHC (Example E4); assay type: in vivo
Description: In the first model, acute colitis was induced in Sprague-Dawley rats by a single intra-rectal instillation of TNBS followed by efficacy analysis at day seven. The animals were grouped into sham+vehicle (PO TID), TNBS+vehicle (PO TID), anti-IL23p19 antibody (4 mg/kg/day IP, Day −1 and Day 3), and Peptide 993 treatment at 9, 28, or 61 mg/kg/day (PO TID+in drinking water). Sham indicates animals not treated with TNBS.
In addition, myeloperoxidase (MPO), IL-17A, and IL-22 detected from sampled tissue were quantified by enzyme-linked immunosorbent assay (ELISA), and the results are shown in FIGS. 10A-10C. The percentage of phosphorylated Signal Transducer and Activator of Transcription 3 (Stat3) was normalized to the area of the distal colon quantified by immuno-histochemistry (IHC) (FIG. 10D), and the micrographs shown in FIG. 10E are representative images from each indicated group for IHC analysis of pStat3 expression. Values shown as mean±SD. Statistical significance was assessed by One-way ANOVA with post-hoc Dunnett's vs. Vehicle control: *p≤0.05; **p≤0.01; ***p≤0.001; ****p≤0.0001; ns, not significant.
For the pSTAT3 assays, colon tissue samples were processed routinely, sectioned at approximately 3-5 microns, fixed in 10% neutral buffered formaldehyde, processed in paraffin, and immunolabeled with an anti-pSTAT3 primary antibody that binds STAT3 phosphorylated at Tyrosine 705 (Abcam, Cat. No. ab76315 PUR). pSTAT3 immunolabel as a percentage of total areas was measured using Visiopharm© image analysis software. Image analysis involved outlining the colon tissue as a region of interest (ROI), then an automated thresholding method was utilized for the classification of the pSTAT3 positive immunolabel. After classification, the total tissue area within the ROI was calculated, along with the count of pSTAT3 positive cells and the area (in microns) of the pSTAT3 positive cells. Lastly, the pSTAT3 immunolabel percentage of the total tissue area was calculated.
The details of the pSTAT3 Image Analysis Protocol were as follows:
1. ROI • a. Tissue was outlined, and non-colon tissues were excluded.
2. Pre-processing • a. Image was converted into grayscale-pixel values processed to be 0-255 • b. Grayscale image was filtered into two channels: • i. The DAB (or pSTAT3 positive) channel with pixels associated with the brown DAB staining; and • ii. The hematoxylin channel with pixels associated with the tissue area not stained with DAB (includes all tissue area and background staining).
3. Analysis & Classification • a. Algorithm using a “threshold” method was used to classify the tissue area within the ROI. • i. Threshold of the DAB channel was set to classify the positive pSTAT3 stained cells as any/all pixels (from the DAB channel of the pre-processed image) with values between 0-135. A green label was applied to these positively classified cells. • 1. Pixels with values outside the threshold of 0-135 were considered to be part of the tissue area (within the ROI). • b. […]
4. […] The total tissue area (within the ROI) was calculated-unit was in microns. • b. The total pSTAT3 positive area was calculated-unit is in microns. • c. The “count” of pSTAT3 positive cells was calculated. • d. The fraction of pSTAT3 positive cells was calculated by dividing the pSTAT3 positive area by the total tissue area-unit was in microns. • e. The nuclear density per square millimeter was calculated, simply to change the units from microns to square millimeter.

Sprague-Dawley rats [2] = test: Protein biomarkers in feces, TNBS rat colitis model, ELISA (Example E2); assay type: in vivo; details: 31 mg/kg/day, normalized to total protein, vs vehicle
Description: The animals were grouped into sham, vehicle, and Peptide 993 treatment at 31 mg/kg/day. Feces were collected from the distal colon of rats and were immediately frozen at the time of necropsy. The feces samples were weighed and homogenized in extraction buffer (PBS pH 7.4 containing Pierce Protease Inhibitors, 3× volume:weight). The samples were incubated on ice for 90 minutes, with intermittent vortexing for complete homogenization. After centrifugation at 3000 g at 4 C, the homogenates were transferred to fresh tubes and subjected to another centrifugation at 14000 g at 4 C. The cleared supernatants were saved in multiple aliquots and stored at −80 C until analysis.
The total protein in each sample was quantified using BCA assay. LCN2, MPO, and MMP-9 protein concentration in the feces samples were analysed using commercially available rat ELISA kits. For LCN2, the samples were diluted at different ratios with assay dilution buffer to capture the large variation in concentration amongst the different treatment groups. The dilution ratios used were 1:20 (sham), 1:200, 1:1000, 1:2000, and 1:4000 (vehicle and Peptide 993).
The concentration of LCN2 was normalized to the total protein measured for the sample. […] Statistical analysis was performed using 1-Way-ANOVA with Dunnetts's multiple comparison.
Fecal homogenates were analyzed for Myeloperoxidase (MPO) concentration using the Rat MPO ELISA kit (Catalog # HK105, Hycult biotech). The samples were used at dilutions ranging from 1:20 to 1:1000, to ensure that the measurements were within the range and sensitivity of the kit. […] A linear equation was used to fit the Standard Curve and the fitting parameters were used to calculate the concentration of MPO. The concentration of MPO for each sample was normalized to the total protein measured for the sample as described above. […] Statistical analyses were performed using 1-Way-ANOVA with Dunnetts's multiple comparison.

[3] = TNBS rats, oral treatment, ELISA

`CC(=O)NC(CCCNC(=N)N)C(=O)NC1CCSCC(C(=O)NC(Cc2ccc(OCCN)cc2)C(=O)NC(Cc2ccc3ccccc3c2)C(=O)NC2(C(=O)NC(CCC(=O)O)C(=O)NC(CC(N)=O)C(=O)NC(CC(N)=O)C(N)=O)CCOCC2)NC(=O)C(CCC(N)=O)NC(=O)C(Cc2c[nH]c3ccccc23)NC(=O)C(C(C)O)NC(=O)C(CCC(N)=O)NC1=O` (centres unmarked) [Peptide 993, Ac-[(D)-Arg]-cyclo[[Abu]-QTWQC]-[Phe[4-(2-aminoethoxy)]]-[2-Nal]-[4-amino-4-carboxy-tetrahydropyran]-ENN-NH2] was tested, and the “disease-related and IL-23-directed markers in the distal colons (MPO, IL-17A, IL-22, pStat3)” value (Sprague-Dawley rats [1]; TNBS rats, 9, 28 or 61 mg/kg/day oral, vs vehicle) was “significant and dose-dependent reduction”, the “colonic levels of MPO” value (Sprague-Dawley rats [1]; [3]) was “decreased” and the “levels of IL-17A, distal colon” value (Sprague-Dawley rats [1]; [3]) was “significantly reduced”. The “levels of IL-22, distal colon” value (Sprague-Dawley rats [1]; [3]) was “significantly reduced”, the “levels of pStat3, distal colon” value (Sprague-Dawley rats [1]; TNBS rats, oral treatment, IHC, percentage of area) was “restored to control levels” and the “fecal LCN2 concentration” value (Sprague-Dawley rats [2]) was “statistically significant decrease; also recorded: stastically significant decrease”. The “fecal MMP-9 concentration” value (Sprague-Dawley rats [2]) was “stastically significant decrease” and the “fecal MPO concentration” value (Sprague-Dawley rats [2]) was “statistically significant decrease; also recorded: stastically significant decrease”.
